This note sets out measurements from ChEMBL document CHEMBL1201862, “PubChem BioAssay data set” (2004).

For test [1], the target named is T1, Heat shock factor protein 1 (Mus musculus, UniProt P38532).
T1 sequence (P38532 whole entry): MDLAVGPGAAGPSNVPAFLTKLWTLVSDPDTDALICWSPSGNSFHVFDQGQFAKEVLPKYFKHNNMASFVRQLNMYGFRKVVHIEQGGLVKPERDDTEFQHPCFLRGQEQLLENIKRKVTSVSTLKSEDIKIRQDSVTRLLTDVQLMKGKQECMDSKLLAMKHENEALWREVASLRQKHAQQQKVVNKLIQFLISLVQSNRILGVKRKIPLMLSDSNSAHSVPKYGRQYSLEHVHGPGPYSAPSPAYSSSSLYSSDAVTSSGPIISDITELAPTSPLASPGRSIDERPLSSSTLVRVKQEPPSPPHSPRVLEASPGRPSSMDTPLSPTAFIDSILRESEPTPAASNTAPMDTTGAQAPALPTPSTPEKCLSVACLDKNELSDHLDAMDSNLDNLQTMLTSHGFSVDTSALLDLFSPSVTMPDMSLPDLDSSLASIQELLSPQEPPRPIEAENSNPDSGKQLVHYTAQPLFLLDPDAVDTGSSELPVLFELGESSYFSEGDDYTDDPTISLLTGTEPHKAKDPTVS
Put plainly: inhibition of MG132-induced HSE-luciferase signal, confirmation, cell-based, NIH3T3, luminescence, dose retest (AID 2382).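 Further: NIH3T3 fibroblasts with HSF1-driven luciferase reporter stressed by proteasome inhibitor MG132; luminescence from HSF1-driven luciferase expression after 8 hours of MG132 stress.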 The format is functional.

Test [2] has as its system Vero. Put plainly: Vero cell toxicity, dose response, cytotoxicity control, plate reader, cherry-pick samples (AID 687020). The format is functional, cell-based. The following applies: Chlorocebus sabaeus.
Test [3] can be described thus: A549 cell cytotoxicity, dose response, cytotoxicity control, plate reader, cherry-pick, antagonist series (AID 743412). The format is functional, cell-based.
A short description of test [4]: HepG2 cell cytotoxicity, dose response, cytotoxicity control, plate reader, cherry-pick, antagonist series (AID 743416). The format is functional, cell-based.
The nature of test [5]: LGR2 antagonists, dose response, cell-based, HEK293, CRE-luciferase reporter, cherry pick, set 2 (AID 743343).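 Further: transfected cells were stimulated with diluted bursicon conditioned medium after compound addition.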 The format is functional. Background: A reporter such as luciferase makes a cellular process visible.
Test [6] can be described thus: MC4R antagonists, dose response, counter-screen for LGR2 antagonist project, cell-based, plate reader, cherry pick (AID 743444).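 Further: transfected HEK 293 cells stimulated with alpha-MSH peptide; potency of inhibitors of the alpha-MSH evoked signal.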 The format is functional.
A short description of test [7]: HEK293 cell cytotoxicity, dose response, cytotoxicity control, plate reader, cherry-picked samples (AID 743446). The format is functional, cell-based.
The nature of test [8]: Luminescence Cell-Based Dose Retest to Confirm Inhibitors of Cancer Stem Cells. [Related pubchem assays (depositor defined):AID2717, AID2721]. The format is functional. The following applies: Homo sapiens.
Test [9] in a line: inhibitors of HIV Env-driven cell fusion, dose response, cherry-pick (AID 652057). The format is functional, cell-based.
A short description of test [10]: CEM21 lymphoblast cell cytotoxicity, dose response, cytotoxicity control for viral fusion inhibitor project, CellTiter-Glo luminescence, cherry-picked (AID 652042).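 Further: potency for signal decrease meaning cytotoxicity.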 The format is functional, cell-based. (Cellular ATP, detected with luciferase, serves as a proxy for viable cell number.)
Test [11] is described as follows: ZM109 Env clade C HIV-1 fusion inhibitors, dose response, HeLa effector, CEM target cells, luciferase, cherry-pick (AID 652058). The format is functional, cell-based.
Test [12] in a line: off-target signal loss in HeLa-CEM21 co-culture – HeLa F-luc CTL cells, cherry-picked, counter-screen for HIV-1 Env fusion inhibitor project, dose response (AID 652040).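 Further: potency for signal decrease marking cytotoxic or nonspecific inhibition.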 The format is functional, cell-based.
The nature of test [13]: inhibitors of clade B AD8 Env fusion, dose response, cell-based, cherry-pick (AID 652062).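 Further: luciferase signal from cell-cell fusion driven by HIV-1 clade B AD8 Env; potency is for inhibitors of fusion seen as a drop in luminescence.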 The format is functional.
The next test addresses T2, Leucine aminopeptidase (Plasmodium falciparum 3D7, UniProt Q8IL11).
T2 sequence (Q8IL11 whole entry): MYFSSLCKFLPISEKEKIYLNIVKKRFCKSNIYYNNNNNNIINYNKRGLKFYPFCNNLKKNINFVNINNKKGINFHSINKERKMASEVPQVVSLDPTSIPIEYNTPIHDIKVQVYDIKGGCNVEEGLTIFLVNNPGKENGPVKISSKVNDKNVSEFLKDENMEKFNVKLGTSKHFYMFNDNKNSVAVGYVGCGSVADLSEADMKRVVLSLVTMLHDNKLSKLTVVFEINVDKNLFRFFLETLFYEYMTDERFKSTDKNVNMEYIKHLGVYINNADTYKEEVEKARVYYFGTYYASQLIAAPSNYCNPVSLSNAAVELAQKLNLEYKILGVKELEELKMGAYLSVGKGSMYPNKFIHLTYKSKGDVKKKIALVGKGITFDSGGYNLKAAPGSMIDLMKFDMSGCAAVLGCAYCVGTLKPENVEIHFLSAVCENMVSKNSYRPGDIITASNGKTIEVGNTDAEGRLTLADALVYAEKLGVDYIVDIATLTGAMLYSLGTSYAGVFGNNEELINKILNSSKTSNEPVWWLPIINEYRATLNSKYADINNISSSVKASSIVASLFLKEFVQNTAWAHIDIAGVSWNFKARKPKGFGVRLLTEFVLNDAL
Put plainly: P. falciparum M17LAP inhibitors, primary screen, biochemical, fluorogenic H-Leu-NHMec substrate, 1536-well (AID 1619). The format is functional.

Test [14] deals with Vero. Put plainly: Vero cell cytotoxicity, cytotoxicity control for flavivirus capping enzyme inhibitors (AID 588742). The format is functional. The following applies: Chlorocebus sabaeus.
A further test addresses Genome polyprotein (dengue virus type 2, UniProt P29990). Briefly: Dengue-2 NS5 methyltransferase inhibitors, primary screen, biochemical, confirmation dose response (AID 588689). The format is functional.
Test [15] addresses 1-phosphatidylinositol 4,5-bisphosphate phosphodiesterase gamma-1 (Homo sapiens, UniProt P19174). Briefly: Counterscreen for inhibitors of phospholipase C isozymes (PLC-B3): Fluorescence-based biochemical high throughput dose response assay to identify inhibitors of phospholipase C isozymes (PLC-gamma1).
Test [16] concerns the target 1-phosphatidylinositol 4,5-bisphosphate phosphodiesterase beta-3 (Homo sapiens, UniProt Q01970). Put plainly: Fluorescence-based biochemical high throughput dose response assay to identify inhibitors of phospholipase C isozymes (PLC-B3).
For another test, the target named is Paired box protein Pax-8 (Homo sapiens, UniProt Q06710). Put plainly: inhibitors of PAX8-driven TPO luciferase reporter, dose response, RMG-I cells, cherry-pick (AID 687027).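 Further: luciferase reporter driven by Pax8 target thyroperoxidase promoter measured by SteadyGlo luminescence.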 The format is functional, cell-based.
Chain of Paired box protein Pax-8 (Q06710 whole entry): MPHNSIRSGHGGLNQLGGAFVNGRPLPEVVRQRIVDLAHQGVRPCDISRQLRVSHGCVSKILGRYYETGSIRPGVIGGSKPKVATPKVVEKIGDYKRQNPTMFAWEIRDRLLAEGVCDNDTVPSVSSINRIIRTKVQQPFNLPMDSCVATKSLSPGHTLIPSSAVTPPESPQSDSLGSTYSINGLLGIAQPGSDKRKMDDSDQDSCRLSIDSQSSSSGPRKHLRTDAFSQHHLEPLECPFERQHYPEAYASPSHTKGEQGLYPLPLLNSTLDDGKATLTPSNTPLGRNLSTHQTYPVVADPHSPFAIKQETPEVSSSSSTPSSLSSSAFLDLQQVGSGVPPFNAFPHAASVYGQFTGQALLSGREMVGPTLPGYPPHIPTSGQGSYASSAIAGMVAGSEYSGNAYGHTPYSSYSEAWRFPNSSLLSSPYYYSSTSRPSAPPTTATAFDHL
The nature of test [17]: IOSE-T80 ovarian epithelial cell cytotoxicity, dose response, cytotoxicity control for PAX8 inhibitor project, plate reader, dry powder samples (AID 743045). The format is functional, cell-based.
Test [18] in a line: A2780 ovarian cancer cell cytotoxicity, dose response, cytotoxicity control, plate reader, dry powder samples (AID 743046). The format is functional, cell-based.
Test [19] in a line: NIH:OVCAR-3 ovarian cancer cell cytotoxicity, dose response, PAX8 inhibitor project, plate reader, dry powder samples (AID 743044). The format is functional, cell-based.
Test [20] is described as follows: IGROV1 ovarian cancer cell cytotoxicity, dose response, PAX8 inhibitor project, plate reader, dry powder samples (AID 743043). The format is functional, cell-based. The following applies: IGROV-1.
Test [21] in a line: non-specific cell cytotoxicity, dose response, cytotoxicity control for PAX8 inhibitor project, plate reader, dry powder samples (AID 743021). The format is functional, cell-based.
A short description of test [22]: cytotoxicity in OVCAR8 ovarian cancer cells, dose response, PAX8 project, cell-based, plate reader, dry powder samples (AID 743197). The format is functional. The settings on record: OVCAR-8.
Test [23] in a line: P. falciparum Dd2 growth inhibitors, dose response, SYBR Green, cherry-picked samples (AID 1159567). The format is functional, cell-based.
A short description of test [24]: HepG2 cell cytotoxicity, dose response, cytotoxicity control, cherry-picked samples (AID 1159577). The format is functional, cell-based.
Test [25] is described as follows: HEp-2 cell cytotoxicity, dose response, cytotoxicity control for RSV inhibitor project, HTS (AID 2410). The format is functional. The following applies: human respiratory syncytial virus.
The target of test [26] is Disintegrin and metalloproteinase domain-containing protein 17 (Homo sapiens, UniProt P78536). Put plainly: exosite inhibitors of ADAM17, dose response, biochemical (AID 743260).
Chain of Disintegrin and metalloproteinase domain-containing protein 17 (P78536 whole entry, the tested form may be a part): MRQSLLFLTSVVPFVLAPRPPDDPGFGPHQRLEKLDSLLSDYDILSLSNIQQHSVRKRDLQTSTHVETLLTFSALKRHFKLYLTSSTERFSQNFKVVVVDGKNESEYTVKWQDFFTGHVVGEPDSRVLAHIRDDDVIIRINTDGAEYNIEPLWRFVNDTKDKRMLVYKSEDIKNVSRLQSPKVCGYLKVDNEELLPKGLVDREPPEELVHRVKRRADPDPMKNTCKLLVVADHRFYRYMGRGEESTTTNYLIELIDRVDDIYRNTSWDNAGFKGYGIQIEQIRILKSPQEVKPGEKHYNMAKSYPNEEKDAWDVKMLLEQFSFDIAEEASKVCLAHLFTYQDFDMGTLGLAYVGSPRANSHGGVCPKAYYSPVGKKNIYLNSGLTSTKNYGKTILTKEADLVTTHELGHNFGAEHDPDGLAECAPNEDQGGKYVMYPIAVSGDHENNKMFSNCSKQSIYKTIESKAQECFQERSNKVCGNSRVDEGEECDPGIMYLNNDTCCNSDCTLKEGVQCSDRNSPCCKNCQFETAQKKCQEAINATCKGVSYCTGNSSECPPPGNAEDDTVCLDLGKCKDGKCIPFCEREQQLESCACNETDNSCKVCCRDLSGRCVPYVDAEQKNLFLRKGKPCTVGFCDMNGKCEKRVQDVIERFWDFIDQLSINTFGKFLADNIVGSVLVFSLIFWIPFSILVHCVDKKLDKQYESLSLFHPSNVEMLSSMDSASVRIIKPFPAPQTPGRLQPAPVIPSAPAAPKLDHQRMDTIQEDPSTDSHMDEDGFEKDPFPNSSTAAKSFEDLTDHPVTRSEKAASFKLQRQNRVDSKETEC
Test [27] is described as follows: ADAM10 protease inhibitors, dose response, selectivity assay for ADAM17 exosite inhibitor project, biochemical, FRET peptide substrate, recombinant human ADAM10 (AID 743259).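 Further: ADAM10 enzyme cleaving a FRET peptide substrate.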
A short description of test [28]: A375 melanoma cell viability loss, dose response, counter-screen for MITF inhibitor project, CellTiter-Glo luminescence, dry powder, set 4 (AID 624364).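 Further: A375 melanoma cells are MITF independent so this is a counter screen.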 The format is functional, cell-based. The settings on record: A-375.
A short description of test [29]: A375 melanoma cell cytotoxicity, dose response, counter-screen for MITF inhibitor project, CellTiter-Glo luminescence, dry powder, set 2 (AID 624489).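 Further: actives are compounds lowering A375 viability meaning general cytotoxicity.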 The format is functional, cell-based. The following applies: A-375. For orientation: A counterscreen serves to expose hits that act by an unwanted route or on another target.

Activity calls are given as the source filed them.

Chain of 1-phosphatidylinositol 4,5-bisphosphate phosphodiesterase beta-3 (Q01970 whole entry): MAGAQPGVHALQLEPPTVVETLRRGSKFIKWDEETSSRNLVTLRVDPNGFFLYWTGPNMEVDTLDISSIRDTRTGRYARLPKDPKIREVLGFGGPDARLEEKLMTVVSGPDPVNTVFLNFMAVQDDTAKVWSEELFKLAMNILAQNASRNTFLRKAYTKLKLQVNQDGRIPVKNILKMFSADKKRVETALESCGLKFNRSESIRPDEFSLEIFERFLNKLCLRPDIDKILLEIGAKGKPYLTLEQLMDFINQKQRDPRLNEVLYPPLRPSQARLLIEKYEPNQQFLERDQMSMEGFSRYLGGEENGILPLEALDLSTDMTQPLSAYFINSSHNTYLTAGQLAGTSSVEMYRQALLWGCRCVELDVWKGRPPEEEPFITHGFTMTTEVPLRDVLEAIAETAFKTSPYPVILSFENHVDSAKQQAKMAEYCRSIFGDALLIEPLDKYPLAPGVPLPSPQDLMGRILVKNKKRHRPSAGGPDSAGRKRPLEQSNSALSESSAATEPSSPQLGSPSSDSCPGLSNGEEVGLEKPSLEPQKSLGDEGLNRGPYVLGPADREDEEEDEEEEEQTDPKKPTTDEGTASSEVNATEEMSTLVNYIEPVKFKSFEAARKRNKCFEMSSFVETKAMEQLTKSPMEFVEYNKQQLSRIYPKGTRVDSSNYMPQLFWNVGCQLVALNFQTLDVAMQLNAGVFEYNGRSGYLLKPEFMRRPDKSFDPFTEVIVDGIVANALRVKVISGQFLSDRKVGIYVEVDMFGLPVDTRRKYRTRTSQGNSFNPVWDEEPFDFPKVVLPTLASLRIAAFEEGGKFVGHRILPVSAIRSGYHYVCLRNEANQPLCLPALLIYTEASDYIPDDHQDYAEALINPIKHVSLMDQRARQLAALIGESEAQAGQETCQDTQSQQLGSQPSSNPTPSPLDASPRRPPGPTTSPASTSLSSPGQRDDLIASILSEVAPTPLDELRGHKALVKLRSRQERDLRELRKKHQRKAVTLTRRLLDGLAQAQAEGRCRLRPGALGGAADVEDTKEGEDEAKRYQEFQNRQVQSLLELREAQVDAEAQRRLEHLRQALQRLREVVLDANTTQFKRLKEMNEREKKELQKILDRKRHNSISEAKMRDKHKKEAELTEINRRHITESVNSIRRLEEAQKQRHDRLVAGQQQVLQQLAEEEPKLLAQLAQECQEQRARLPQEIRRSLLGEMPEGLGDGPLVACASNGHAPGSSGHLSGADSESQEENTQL
Chain of 1-phosphatidylinositol 4,5-bisphosphate phosphodiesterase gamma-1 (P19174 whole entry): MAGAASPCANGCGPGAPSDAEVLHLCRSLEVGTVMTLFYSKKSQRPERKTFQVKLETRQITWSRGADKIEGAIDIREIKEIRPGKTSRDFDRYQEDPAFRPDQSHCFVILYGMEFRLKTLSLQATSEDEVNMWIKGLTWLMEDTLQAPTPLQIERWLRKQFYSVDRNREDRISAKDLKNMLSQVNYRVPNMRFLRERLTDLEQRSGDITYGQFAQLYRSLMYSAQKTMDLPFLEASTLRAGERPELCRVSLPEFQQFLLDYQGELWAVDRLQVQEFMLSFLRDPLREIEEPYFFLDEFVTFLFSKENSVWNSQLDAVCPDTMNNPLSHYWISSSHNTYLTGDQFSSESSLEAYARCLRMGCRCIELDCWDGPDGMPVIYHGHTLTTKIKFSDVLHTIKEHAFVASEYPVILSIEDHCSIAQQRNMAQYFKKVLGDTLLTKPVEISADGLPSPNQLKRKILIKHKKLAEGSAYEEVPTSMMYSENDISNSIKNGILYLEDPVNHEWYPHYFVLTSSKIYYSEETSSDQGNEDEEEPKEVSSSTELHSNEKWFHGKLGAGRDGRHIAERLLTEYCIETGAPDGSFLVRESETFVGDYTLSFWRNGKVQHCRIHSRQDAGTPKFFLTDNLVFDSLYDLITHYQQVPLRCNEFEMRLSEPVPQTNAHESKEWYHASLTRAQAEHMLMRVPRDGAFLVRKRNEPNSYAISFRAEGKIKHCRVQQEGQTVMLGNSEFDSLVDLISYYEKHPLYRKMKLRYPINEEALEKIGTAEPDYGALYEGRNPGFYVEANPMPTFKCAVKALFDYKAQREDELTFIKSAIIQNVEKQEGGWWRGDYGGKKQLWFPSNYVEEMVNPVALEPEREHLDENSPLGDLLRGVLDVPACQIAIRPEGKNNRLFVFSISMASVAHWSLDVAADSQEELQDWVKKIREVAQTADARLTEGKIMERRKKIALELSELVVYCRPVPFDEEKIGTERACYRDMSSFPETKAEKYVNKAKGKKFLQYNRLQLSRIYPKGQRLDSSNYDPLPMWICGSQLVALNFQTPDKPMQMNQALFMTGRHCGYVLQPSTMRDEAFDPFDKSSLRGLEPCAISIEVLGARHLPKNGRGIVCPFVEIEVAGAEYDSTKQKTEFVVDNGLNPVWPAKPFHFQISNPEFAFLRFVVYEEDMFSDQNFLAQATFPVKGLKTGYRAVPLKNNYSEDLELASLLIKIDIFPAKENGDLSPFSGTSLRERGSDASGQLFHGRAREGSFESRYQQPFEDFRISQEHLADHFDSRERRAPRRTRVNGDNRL
Chain of Genome polyprotein (P29990 2492-3391 limits assumed): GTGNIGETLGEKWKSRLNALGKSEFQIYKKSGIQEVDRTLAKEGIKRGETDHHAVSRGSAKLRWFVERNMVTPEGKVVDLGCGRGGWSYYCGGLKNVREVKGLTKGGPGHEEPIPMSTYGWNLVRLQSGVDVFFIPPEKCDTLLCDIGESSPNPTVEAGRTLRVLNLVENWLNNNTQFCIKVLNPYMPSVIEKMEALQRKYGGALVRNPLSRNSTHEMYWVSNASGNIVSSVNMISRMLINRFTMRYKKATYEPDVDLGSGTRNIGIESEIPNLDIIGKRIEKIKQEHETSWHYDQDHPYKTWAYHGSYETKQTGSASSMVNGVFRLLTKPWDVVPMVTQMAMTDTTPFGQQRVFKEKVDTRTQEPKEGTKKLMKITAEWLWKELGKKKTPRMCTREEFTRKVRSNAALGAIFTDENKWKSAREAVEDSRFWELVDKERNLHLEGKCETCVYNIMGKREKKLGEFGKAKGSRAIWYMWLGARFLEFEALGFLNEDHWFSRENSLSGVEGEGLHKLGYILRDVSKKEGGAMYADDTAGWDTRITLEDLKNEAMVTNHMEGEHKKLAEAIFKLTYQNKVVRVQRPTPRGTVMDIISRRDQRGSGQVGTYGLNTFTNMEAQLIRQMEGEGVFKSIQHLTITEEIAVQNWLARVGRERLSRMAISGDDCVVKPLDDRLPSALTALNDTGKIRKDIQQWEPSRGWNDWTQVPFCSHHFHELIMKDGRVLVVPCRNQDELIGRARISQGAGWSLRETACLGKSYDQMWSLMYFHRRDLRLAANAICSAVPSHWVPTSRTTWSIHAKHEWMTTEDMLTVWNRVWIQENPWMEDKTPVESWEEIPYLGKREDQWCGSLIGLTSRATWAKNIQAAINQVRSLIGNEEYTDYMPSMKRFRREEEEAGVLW

For orientation: EC50 means the concentration that produces a half-maximal response. As usually defined, the AC50 is the concentration at which the activity in the assay is half-maximal. Turning to `CC1(C)CC(NC(=O)COc2ccccc2Cl)CC(C)(C)N1`, the EC50 in [1] was 2.65 µM (active). Further, in the test on Vero [2], the AC50 is 33.7 µM (active).

In the case of `CCCCn1nnnc1C(CCc1ccccc1)N1CCC(n2c(O)nc3ccccc32)CC1` (stereo not given), the AC50 in [3] is 19 µM (active); in test [4] it was > 52 µM (inactive); in test [5], 20.1 µM (active); in test [6] it was 7.55 µM (active); in test [7], 19.8 µM (active).

On to `Cc1nn(Cc2ccc(Cl)c(Cl)c2)c(C)c1NC(=O)c1cc(-c2ccc3c(c2)OCO3)on1`, for which the AC50 is 0.471 µM (active) in test [8]; 20.3 µM (active) in [9]; 20.6 µM (active) in test [10]; 28.7 µM (active) in [11]; > 70 µM (inactive) in test [12]; 56 µM (active) in test [13].

The term IC50 denotes the point on the concentration scale where inhibition reaches its midpoint. Usually CC50 stands for the concentration at which the toxic effect on the cells reaches its halfway point. Turning to `O=Cc1cc(N=Nc2cccc(C(=O)O)c2)ccc1O`, the IC50 is 51.5 µM (active) on Leucine aminopeptidase, 99.6 µM (active) at Genome polyprotein, 23.7 µM (inactive) in test [15] and > 122 µM (inactive) in test [16]. The CC50 in the test on Vero [14] is > 40 µM (active).

Consider `C(=C\c1ccc([C@H]2[C@@H]3CN(Cc4ccc5c(c4)OCO5)C[C@H]2N3)cc1)/c1ccccc1`, for which the AC50 was 20.2 µM (active) at Paired box protein Pax-8; 32.4 µM (active) in test [17]; 12 µM (active) in [18]; 17.6 µM (active) in test [19]; 18.8 µM (active) in [20]; 31.7 µM (active) in test [21]. Besides, the values for the AC50 in test [22], in [23] and in test [24] were 35.1 µM (active), 2.83 µM (active) and 8.83 µM (active), respectively.

As for `CCOc1cc2c3c(c1)C1(C(=O)N3C(C)(C)C=C2C)C(C#N)=C(N)Oc2cc(O)ccc21` (stereo not given), the CC50 in test [25] is 11.8 µM (active). In addition, the IC50 in [26] and in [27] was > 69.5 µM (inactive) each time.

For `O=C(NC1=C(c2ccccc2)C(=O)c2ccccc2C1=O)c1ccccc1`, the AC50 in [28] is 47.5 µM (active); in test [29] it was 18.3 µM (active).

Regarding `COc1ccc(S(=O)(=O)N(C)C[C@@H]2OCCCC[C@H](C)Oc3ccc(NS(=O)(=O)c4ccc(Cl)cc4)cc3C(=O)N([C@H](C)CO)C[C@@H]2C)cc1`, the AC50 on Paired box protein Pax-8 is 4.8 µM (active); in [19], 26.9 µM (active); in test [21] it was 58.4 µM (active).
